From ChEMBL document CHEMBL1124313, “Benzodiazepine gastrin and brain cholecystokinin receptor ligands: L-365,260” (J Med Chem, 1989)

Legend:
[1] = Displacement of 125 I-gastrin from gastrin receptor of guinea pig gastric glands
[2] = molecular target: T1, Cholecystokinin receptor type A (Rattus norvegicus, UniProt P30551); test: Displacement of [125 I] CCK-8 from Cholecystokinin type A receptor of rat pancreas
T1 sequence (P30551 whole entry): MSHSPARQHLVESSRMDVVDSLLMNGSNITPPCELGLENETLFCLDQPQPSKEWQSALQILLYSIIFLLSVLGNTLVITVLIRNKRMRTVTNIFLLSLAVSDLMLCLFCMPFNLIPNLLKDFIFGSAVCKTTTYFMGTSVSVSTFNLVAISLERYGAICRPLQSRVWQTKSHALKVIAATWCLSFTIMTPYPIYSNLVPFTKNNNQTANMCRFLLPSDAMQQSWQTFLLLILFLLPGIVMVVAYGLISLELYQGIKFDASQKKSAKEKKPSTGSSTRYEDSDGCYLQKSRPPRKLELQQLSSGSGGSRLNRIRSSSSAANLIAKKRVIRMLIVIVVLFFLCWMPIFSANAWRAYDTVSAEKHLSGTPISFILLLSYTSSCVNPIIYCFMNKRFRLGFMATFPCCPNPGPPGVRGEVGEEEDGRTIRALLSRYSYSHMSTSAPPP

Structure (SMILES)	IC50 [1] [nM]	IC50 [2] [nM]
CCOC(=O)CN1C(=O)C(NC(=O)c2ccc(Cl)cc2)N=C(c2ccccc2F)c2ccccc21 (racemic)	690	–
CN1C(=O)[C@@H](NC(=O)c2ccc(Cl)cc2)N=C(c2ccccc2F)c2ccccc21	–	0.39
CN1C(=O)[C@H](NC(=O)c2ccc(Cl)cc2)N=C(c2ccccc2F)c2ccccc21	–	2.9
O=C(Nc1ccc(Cl)cc1)NC1N=C(c2ccccc2F)c2ccccc2NC1=O (racemic)	–	110
